From patent US20210228653A1, “BACILLUS LICHENIFORMIS STRAIN WITH PROBIOTIC ACTIVITY” (EVONIK DEGUSSA GMBH, priority 2016, published 2021)
Where “and” joins values, the source holds several entries; their conditions need not be identical. Equal values may be shown once.

Design: species or system broiler chickens (Vencobb 400)
Details: in vivo

Bacitracin Methylene Disalicyclate [BMD]
FCR (feed conversion ratio, feed to gain): 1.42 g/g and 1.74 g/g
FCR compared to the control (in words): reduced
body weight compared to the control (in words): improved the body weight
